{"source": "ChEMBL document CHEMBL1201862", "about": "“PubChem BioAssay data set” (2004)", "key": {"[1]": {"system": "CHO-K1", "assay": "(§1) Counterscreen for antagonists of the orexin 1 receptor (OX1R; HCRTR1): Homogeneous time resolved fluorescence (HTRF)-based cell-based dose response assay to identify antagonists of the parental CHO-K1 cell line. [Related pubchem assays (depositor defined):AID434989, AID435008, AID463079, AID485270, AID492963, AID492964, AID492965, AID493232, AID504699, AID504701]", "assay_type": "functional", "conditions": "Cricetulus griseus"}, "[2]": {"assay": "as §1, with “Fluorescence-based” for “Homogeneous time resolved fluorescence (HTRF)-based”, “cell-based high throughput” for “cell-based”, “CHO” for “CHO-K1”", "assay_type": "functional"}, "[3]": {"molecular_target": "T1, Orexin/Hypocretin receptor type 1 (Homo sapiens, UniProt O43613)", "T1 sequence (O43613 whole entry)": "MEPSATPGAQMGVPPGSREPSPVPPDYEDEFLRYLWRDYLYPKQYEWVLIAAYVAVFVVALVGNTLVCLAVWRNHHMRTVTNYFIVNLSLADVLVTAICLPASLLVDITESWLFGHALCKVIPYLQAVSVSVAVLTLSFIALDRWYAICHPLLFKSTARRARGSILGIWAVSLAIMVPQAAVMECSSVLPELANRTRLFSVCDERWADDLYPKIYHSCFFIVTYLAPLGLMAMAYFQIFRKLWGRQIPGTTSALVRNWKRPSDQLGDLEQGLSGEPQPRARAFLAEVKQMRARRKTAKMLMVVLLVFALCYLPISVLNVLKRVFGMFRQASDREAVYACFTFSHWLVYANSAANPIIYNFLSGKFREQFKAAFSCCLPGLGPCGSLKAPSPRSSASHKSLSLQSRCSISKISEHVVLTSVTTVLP", "assay": "Homogeneous Time Resolved Fluorescence (HTRF)-based cell-based high throughput dose response assay for antagonists of the orexin 1 receptor (OX1R; HCRTR1). [Related pubchem assays (depositor defined):AID434989, AID435008, AID463079, AID485270, AID492963, AID492964, AID492965, AID493232, AID504717, AID504718]", "assay_type": "functional"}, "[4]": {"molecular_target": "T1, Orexin/Hypocretin receptor type 1", "assay": "Fluorescence-based cell-based high throughput dose response assay for antagonists of the orexin 1 receptor (OX1R; HCRTR1). [Related pubchem assays (depositor defined):AID434989, AID435008, AID463079, AID485270, AID492963, AID492964, AID492965, AID493232, AID504717, AID504718]", "assay_type": "functional"}, "[5]": {"molecular_target": "T2, Orexin receptor type 2 (Homo sapiens, UniProt O43614)", "T2 sequence (O43614 whole entry)": "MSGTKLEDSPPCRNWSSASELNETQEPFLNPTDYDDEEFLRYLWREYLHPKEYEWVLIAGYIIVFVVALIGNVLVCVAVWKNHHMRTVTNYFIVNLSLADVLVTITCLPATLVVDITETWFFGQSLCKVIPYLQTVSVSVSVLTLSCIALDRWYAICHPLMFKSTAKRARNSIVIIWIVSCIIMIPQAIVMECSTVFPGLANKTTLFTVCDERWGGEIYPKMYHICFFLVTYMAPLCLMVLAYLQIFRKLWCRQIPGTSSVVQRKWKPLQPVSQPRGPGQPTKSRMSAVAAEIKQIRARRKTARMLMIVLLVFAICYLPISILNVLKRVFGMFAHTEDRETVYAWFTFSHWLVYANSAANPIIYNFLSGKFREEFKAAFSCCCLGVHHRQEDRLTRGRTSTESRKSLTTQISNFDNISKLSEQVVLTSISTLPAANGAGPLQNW", "assay": "Counterscreen assay for antagonists of the orexin 1 receptor (OX1R; HCRTR1): Fluorescence-based cell-based dose response assay for antagonists of the orexin 2 receptor (OX2R; HCRTR2), run by assay provider.", "assay_type": "functional"}, "[6]": {"molecular_target": "T2, Orexin receptor type 2", "assay": "Counterscreen assay for antagonists of the orexin 1 receptor (OX1R; HCRTR1): Homogeneous Time Resolved Fluorescence (HTRF)-based cell-based dose response assay for antagonists of the orexin 2 receptor (OX2R; HCRTR2), run by assay provider.", "assay_type": "functional"}, "[7]": {"molecular_target": "T3, Sentrin-specific protease 8 (Homo sapiens, UniProt Q96LD8)", "T3 sequence (Q96LD8 whole entry)": "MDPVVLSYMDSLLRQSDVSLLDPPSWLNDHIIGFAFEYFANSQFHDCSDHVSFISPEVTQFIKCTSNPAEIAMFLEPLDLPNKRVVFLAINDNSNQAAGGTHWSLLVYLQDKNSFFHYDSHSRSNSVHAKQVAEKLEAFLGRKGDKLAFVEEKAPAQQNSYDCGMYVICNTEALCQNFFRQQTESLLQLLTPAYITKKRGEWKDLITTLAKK", "assay_type": "functional"}, "[8]": {"molecular_target": "T3, Sentrin-specific protease 8", "assay_type": "functional", "remark": "listed apart in the source"}, "[9]": {"molecular_target": "Hexokinase-1 (Homo sapiens, UniProt P19367)", "sequence (P19367 whole entry)": "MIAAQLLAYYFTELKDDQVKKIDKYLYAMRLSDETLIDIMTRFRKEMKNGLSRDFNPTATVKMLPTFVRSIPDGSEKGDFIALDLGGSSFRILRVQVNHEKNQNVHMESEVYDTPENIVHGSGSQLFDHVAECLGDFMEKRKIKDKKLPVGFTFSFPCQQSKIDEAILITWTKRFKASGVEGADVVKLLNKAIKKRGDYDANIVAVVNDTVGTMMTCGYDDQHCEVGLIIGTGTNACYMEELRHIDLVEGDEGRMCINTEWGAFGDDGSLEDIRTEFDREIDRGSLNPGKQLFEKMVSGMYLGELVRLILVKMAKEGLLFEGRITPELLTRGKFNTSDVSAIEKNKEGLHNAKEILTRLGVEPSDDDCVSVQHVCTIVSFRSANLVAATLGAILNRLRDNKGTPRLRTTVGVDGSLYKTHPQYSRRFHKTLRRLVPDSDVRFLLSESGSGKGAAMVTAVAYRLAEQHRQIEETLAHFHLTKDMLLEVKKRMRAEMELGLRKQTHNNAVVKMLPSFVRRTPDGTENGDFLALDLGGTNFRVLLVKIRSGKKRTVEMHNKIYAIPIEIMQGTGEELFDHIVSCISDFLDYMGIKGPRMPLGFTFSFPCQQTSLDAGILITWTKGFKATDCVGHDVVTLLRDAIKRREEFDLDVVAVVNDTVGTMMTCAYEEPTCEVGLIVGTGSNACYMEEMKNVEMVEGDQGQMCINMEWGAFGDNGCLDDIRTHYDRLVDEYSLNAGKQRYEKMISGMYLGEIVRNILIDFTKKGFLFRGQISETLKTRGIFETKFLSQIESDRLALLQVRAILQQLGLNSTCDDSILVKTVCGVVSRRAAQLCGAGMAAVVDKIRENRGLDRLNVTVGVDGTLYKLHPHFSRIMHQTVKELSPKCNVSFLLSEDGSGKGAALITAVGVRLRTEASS", "assay": "hexokinase 1 activity inhibitors, potency – biochemical, set 2, resazurin fluorescence coupled readout, selectivity assay for HKDC1 inhibitor project, SAR follow-up (AID 588356)", "assay_type": "functional"}, "[10]": {"molecular_target": "Hexokinase HKDC1 (Homo sapiens, UniProt Q2TB90)", "sequence (Q2TB90 whole entry)": "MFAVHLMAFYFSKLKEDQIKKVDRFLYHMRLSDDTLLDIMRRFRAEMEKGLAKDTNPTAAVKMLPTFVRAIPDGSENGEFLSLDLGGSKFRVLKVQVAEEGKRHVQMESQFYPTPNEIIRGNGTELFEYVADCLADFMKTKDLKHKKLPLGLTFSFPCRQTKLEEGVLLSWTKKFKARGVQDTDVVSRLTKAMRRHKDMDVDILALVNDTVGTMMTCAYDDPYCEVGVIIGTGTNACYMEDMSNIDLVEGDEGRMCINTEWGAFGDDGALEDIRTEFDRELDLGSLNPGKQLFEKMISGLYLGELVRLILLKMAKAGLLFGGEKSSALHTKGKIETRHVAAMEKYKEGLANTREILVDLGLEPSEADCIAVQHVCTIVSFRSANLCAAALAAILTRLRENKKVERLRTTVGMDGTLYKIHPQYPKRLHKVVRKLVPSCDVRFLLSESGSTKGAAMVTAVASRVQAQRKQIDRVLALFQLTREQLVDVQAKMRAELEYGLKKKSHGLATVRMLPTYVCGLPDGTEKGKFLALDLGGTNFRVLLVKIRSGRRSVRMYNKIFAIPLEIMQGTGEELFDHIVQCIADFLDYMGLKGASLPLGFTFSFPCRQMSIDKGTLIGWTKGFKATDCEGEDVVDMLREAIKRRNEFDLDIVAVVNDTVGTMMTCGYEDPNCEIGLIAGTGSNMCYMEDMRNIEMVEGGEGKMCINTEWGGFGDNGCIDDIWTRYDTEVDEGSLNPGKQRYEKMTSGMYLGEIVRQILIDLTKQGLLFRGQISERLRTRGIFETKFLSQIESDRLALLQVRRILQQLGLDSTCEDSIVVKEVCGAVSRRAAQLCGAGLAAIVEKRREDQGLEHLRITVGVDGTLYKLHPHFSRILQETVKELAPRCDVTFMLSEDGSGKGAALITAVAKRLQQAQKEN", "assay": "analog inhibition of human HKDC1 activity – biochemical, set 2, SAR follow-up (AID 588355)", "assay_type": "functional"}, "[11]": {"molecular_target": "Mitogen-activated protein kinase 13 (Homo sapiens, UniProt O15264)", "sequence (O15264 whole entry)": "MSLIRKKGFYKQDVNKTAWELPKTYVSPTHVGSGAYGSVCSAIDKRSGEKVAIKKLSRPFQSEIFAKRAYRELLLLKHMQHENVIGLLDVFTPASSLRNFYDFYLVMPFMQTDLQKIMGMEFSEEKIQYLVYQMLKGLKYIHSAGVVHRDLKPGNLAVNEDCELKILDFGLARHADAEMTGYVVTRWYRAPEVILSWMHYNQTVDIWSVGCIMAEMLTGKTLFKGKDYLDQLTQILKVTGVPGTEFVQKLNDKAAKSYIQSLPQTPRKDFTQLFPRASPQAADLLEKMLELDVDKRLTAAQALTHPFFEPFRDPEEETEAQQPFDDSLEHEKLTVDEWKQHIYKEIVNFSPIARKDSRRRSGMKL", "assay_type": "functional"}, "[12]": {"assay": "luciferase reporter signal suppression in cells – H4 neuroglioma cells, luminescence, dose response (AID 1990)", "assay_type": "functional, cell-based"}, "[13]": {"assay": "Luminescence Cell-Based Dose Response HTS to Identify Inhibitors of 5'UTR Stem-Loop Driven Prion Protein mRNA Translation in H4 Neuroglioblastoma Cells. [Related pubchem assays: 1827 (Project Summary), 1813 (Primary HTS)]", "assay_type": "functional"}, "[14]": {"assay": "alpha-synuclein stem-loop luciferase translation blockers – H4 neuroglioma cells, luminescence, confirmation (AID 1988)", "assay_type": "functional, cell-based"}, "[15]": {"system": "HEK293", "assay": "EBV LMP1 TES2 canonical NF-kB signalling blockers – cell-based, HEK293, luciferase, cherry-pick, dose response (AID 588343)", "assay_type": "functional", "conditions": "Homo sapiens"}, "[16]": {"molecular_target": "Luciferin 4-monooxygenase (Photuris pensylvanica, UniProt Q27757)", "sequence (Q27757 whole entry)": "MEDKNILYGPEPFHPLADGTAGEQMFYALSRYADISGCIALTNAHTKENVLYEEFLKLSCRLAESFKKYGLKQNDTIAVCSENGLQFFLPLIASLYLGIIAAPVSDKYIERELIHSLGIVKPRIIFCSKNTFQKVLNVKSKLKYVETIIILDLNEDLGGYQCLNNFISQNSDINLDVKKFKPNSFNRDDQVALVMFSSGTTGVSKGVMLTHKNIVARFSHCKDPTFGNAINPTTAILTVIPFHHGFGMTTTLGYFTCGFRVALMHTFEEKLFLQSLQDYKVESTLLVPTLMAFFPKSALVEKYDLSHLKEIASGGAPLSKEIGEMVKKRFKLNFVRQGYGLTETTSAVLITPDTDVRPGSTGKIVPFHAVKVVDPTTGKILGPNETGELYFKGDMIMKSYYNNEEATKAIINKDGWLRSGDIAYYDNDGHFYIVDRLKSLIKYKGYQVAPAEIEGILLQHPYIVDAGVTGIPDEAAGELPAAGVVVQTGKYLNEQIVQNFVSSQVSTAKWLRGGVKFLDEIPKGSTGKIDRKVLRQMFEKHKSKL", "assay": "inhibition of Cell Titer Glo luciferase signal – biochemical, luminescence, cherry-picks, counter-screen for HSF-1 reporter inhibitor project, dose response (AID 588847)"}, "[17]": {"assay": "blockers of HIV-1 envelope-mediated cell-cell fusion – cherry-pick, dose response (AID 652057)", "assay_type": "functional, cell-based"}, "[18]": {"assay": "off-target signal loss in HeLa-CEM21 co-culture – HeLa F-luc CTL cells, cherry-picked, counter-screen for HIV-1 Env fusion inhibitor project, dose response (AID 652040)", "assay_type": "functional, cell-based"}, "[19]": {"assay": "HIV-1 AD8 envelope cell-cell fusion blockers – cherry-pick, dose response (AID 652062)", "assay_type": "functional, cell-based"}, "[20]": {"molecular_target": "Aurora kinase A (Homo sapiens, UniProt O14965)", "sequence (O14965 whole entry)": "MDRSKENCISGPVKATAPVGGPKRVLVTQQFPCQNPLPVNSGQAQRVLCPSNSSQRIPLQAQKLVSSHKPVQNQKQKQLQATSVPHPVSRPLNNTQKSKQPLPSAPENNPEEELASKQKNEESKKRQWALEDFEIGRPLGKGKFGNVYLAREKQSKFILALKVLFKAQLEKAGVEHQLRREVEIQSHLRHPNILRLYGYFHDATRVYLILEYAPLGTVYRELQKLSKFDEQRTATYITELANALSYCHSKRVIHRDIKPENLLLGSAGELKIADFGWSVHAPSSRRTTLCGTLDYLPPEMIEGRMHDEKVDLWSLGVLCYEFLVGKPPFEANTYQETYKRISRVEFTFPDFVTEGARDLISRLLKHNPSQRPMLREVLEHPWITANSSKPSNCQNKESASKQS", "assay_type": "functional"}, "[21]": {"molecular_target": "Aurora kinase B (Homo sapiens, UniProt Q96GD4)", "sequence (Q96GD4 whole entry)": "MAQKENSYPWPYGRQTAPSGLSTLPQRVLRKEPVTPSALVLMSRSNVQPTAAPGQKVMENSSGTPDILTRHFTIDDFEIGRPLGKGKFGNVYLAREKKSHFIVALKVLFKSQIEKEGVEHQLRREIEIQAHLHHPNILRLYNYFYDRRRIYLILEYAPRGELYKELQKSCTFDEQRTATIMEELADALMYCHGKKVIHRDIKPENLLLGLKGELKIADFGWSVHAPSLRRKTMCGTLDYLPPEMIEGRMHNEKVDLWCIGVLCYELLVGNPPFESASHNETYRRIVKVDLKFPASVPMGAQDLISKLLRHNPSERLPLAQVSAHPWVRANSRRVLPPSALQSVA", "assay_type": "functional"}, "[22]": {"molecular_target": "Cyclin-dependent kinase 19 (Homo sapiens, UniProt Q9BWU1)", "assay": "Navigating the Kinome. Panel member name: CDC2L6", "assay_type": "functional"}, "[23]": {"molecular_target": "ALK tyrosine kinase receptor (Homo sapiens, UniProt Q9UM73)", "assay_type": "functional"}, "[24]": {"molecular_target": "Wee1-like protein kinase (Homo sapiens, UniProt P30291)", "assay": "Navigating the Kinome. Panel member name: WEE1", "assay_type": "functional"}, "[25]": {"molecular_target": "T4, Short transient receptor potential channel 4 (Mus musculus, UniProt Q9QUQ5)", "T4 sequence (Q9QUQ5 whole entry)": "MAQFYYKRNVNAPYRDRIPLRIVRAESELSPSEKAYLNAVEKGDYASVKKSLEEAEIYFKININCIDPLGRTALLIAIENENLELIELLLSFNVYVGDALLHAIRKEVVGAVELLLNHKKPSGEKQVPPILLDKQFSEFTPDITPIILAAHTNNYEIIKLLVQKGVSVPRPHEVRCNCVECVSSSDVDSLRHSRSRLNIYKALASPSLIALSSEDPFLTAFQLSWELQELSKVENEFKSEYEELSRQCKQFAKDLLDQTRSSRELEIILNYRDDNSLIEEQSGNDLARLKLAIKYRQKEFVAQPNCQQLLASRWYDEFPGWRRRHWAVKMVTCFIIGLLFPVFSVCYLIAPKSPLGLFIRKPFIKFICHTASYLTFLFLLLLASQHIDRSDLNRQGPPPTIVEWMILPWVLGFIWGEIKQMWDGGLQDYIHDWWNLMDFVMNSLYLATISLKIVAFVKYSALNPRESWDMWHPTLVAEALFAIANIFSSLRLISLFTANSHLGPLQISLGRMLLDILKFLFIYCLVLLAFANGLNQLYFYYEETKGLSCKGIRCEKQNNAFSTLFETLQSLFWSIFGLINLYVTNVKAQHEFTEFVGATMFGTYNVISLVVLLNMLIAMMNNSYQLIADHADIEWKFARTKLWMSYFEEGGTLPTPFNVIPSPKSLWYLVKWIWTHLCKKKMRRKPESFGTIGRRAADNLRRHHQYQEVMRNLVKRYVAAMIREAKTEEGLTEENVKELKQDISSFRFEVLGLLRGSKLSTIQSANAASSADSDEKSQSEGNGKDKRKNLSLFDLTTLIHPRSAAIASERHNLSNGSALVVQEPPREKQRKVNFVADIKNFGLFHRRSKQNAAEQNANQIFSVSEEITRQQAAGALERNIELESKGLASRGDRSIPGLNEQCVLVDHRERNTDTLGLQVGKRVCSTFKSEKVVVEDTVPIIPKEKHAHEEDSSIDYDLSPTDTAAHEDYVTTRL", "assay": "SAR Analysis for the identification of selective inhibits of the transient receptor potential cation channel C4 (TRPC4): Automated Electrophysiology_2. [Related pubchem assays (depositor defined):AID2256]", "assay_type": "functional"}, "[26]": {"molecular_target": "Short transient receptor potential channel 6 (Mus musculus, UniProt Q61143)", "assay": "mouse TRPC6 channel blockers, concentration series – HEK293 cells, membrane potential dye, IC50, selectivity assay for selective TRPC4 inhibitor project, dose response (AID 492987)", "assay_type": "functional, cell-based"}, "[27]": {"molecular_target": "T4, Short transient receptor potential channel 4", "assay": "calcium entry via TRPC4 opening agents – cell-based, HEK293 TRPC4/mu-opioid, Fluo-4 calcium, dose response (AID 434937)", "assay_type": "functional"}, "[28]": {"molecular_target": "Delta-type opioid receptor (Homo sapiens, UniProt P41143)", "assay": "Counterscreen for agonists of heterodimerization of the mu 1 (OPRM1) and delta 1 (OPRD1) opioid receptors: Luminescence-based cell-based high throughput dose response assay to identify agonists of OPRD1 homodimerization. [Related pubchem assays (depositor defined):AID504326, AID504355, AID504692, AID504904, AID504905]", "assay_type": "functional"}, "[29]": {"molecular_target": "Mu-type opioid receptor (Homo sapiens, UniProt P35372)", "sequence (P35372 whole entry)": "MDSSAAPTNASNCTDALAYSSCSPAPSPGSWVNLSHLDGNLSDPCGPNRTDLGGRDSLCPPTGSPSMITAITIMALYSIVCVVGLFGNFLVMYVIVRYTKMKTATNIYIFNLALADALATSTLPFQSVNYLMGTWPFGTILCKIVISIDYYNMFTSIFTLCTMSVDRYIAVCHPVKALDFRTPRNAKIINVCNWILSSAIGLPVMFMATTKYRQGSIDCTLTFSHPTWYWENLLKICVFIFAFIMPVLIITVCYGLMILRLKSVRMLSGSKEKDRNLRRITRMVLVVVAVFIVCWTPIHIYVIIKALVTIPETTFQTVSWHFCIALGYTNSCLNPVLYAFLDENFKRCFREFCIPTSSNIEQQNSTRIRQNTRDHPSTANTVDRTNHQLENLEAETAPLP", "assay": "Counterscreen for agonists of heterodimerization of the mu 1 (OPRM1) and delta 1 (OPRD1) opioid receptors: Luminescence-based cell-based high throughput dose response assay to identify agonists of OPRM1 homodimerization.", "assay_type": "functional"}, "[30]": {"molecular_target": "5-hydroxytryptamine receptor 5A (Homo sapiens, UniProt P47898)", "assay": "Counterscreen for agonists of OPRM1-OPRD1 heterodimerization: luminescence-based cell-based high throughput dose response assay to identify agonists of 5-hydroxytryptamine (serotonin) 5A receptor (HTR5A). [Related pubchem assays (depositor defined):AID504326, AID504355, AID504692, AID504904, AID504905]", "assay_type": "functional"}}, "note": "Active and inactive are the calls of the source.", "data": [{"smiles": "CCOc1cc(C(=S)N2CCOCC2)cc(Br)c1OS(=O)(=O)c1ccccc1", "values": [{"measurement": "IC50", "setting": "[1]", "value": "> 66.2 µM (inactive)"}, {"measurement": "IC50", "setting": "[2]", "value": "> 49.8 µM (inactive)"}, {"measurement": "IC50", "setting": "[3]", "value": "4.56 µM (active)"}, {"measurement": "IC50", "setting": "[4]", "value": "8.68 µM (active)"}, {"measurement": "IC50", "setting": "[5]", "value": "6.2 µM (active)"}, {"measurement": "IC50", "setting": "[6]", "value": "> 50 µM (inactive)"}, {"measurement": "IC50", "setting": "[7]", "value": "8.6 µM (active)"}, {"measurement": "IC50", "setting": "[8]", "value": "8.96 µM (active)"}]}, {"smiles": "CCCCN1C(=O)C(NC(C)=O)c2cc(OC)ccc21", "note": "(stereo not given)", "values": [{"measurement": "IC50", "setting": "[9]", "value": "> 80 µM (inactive)"}, {"measurement": "IC50", "setting": "[10]", "value": "> 80 µM (inactive)"}]}, {"smiles": "Cc1cccc(NC(=O)Nc2ccc(-c3ccc4nccnc4c3N)cc2)c1", "values": [{"measurement": "Ki", "setting": "[11]", "value": "> 7.94 µM (inactive)"}]}, {"smiles": "CCOc1ccc(OCc2cccc(C(=O)N/N=C/c3cccnc3)c2)cc1", "values": [{"measurement": "EC50", "setting": "[12]", "value": "9.06 µM (active)"}, {"measurement": "EC50", "setting": "[13]", "value": "12.8 µM (active)"}, {"measurement": "EC50", "setting": "[14]", "value": "9.36 µM (active)"}, {"measurement": "AC50", "setting": "[15]", "value": "1.29 µM (active)"}, {"measurement": "AC50", "setting": "[16]", "value": "31.9 µM (active)"}, {"measurement": "AC50", "setting": "[17]", "value": "2.3 µM (active)"}, {"measurement": "AC50", "setting": "[18]", "value": "1.46 µM (active)"}, {"measurement": "AC50", "setting": "[19]", "value": "3.31 µM (active)"}]}, {"smiles": "Cc1ccc(F)c(NC(=O)Nc2ccc(-c3cc(CO)c(F)c4[nH]nc(N)c34)cc2)c1", "values": [{"measurement": "Ki", "setting": "[20]", "value": "0.126 µM (active)"}, {"measurement": "Ki", "setting": "[21]", "value": "0.01 µM (active)"}, {"measurement": "Ki", "setting": "[22]", "value": "2 µM (active)"}]}, {"smiles": "CCN1CCN(c2ccc(Nc3nccc(Nc4ccc5[nH]ncc5c4)n3)cc2)CC1", "values": [{"measurement": "Ki", "setting": "[23]", "value": "1 µM (active)"}, {"measurement": "Ki", "setting": "[24]", "value": "0.158 µM (active)"}]}, {"smiles": "CCc1ccc2nc(N3CCCCC3)cc(C)c2c1", "values": [{"measurement": "IC50", "setting": "[25]", "value": "3.73 µM (active)"}, {"measurement": "IC50", "setting": "[26]", "value": "15 µM (active)"}]}, {"smiles": "CCOC(=O)C1(CCOc2ccccc2)CCN(Cc2ccc3c(c2)OCCO3)CC1", "values": [{"measurement": "EC50", "setting": "[27]", "value": "1.33 µM (active)"}, {"measurement": "EC50", "setting": "[28]", "value": "> 92.5 µM (inactive)"}, {"measurement": "EC50", "setting": "[29]", "value": "> 92.5 µM (inactive)"}, {"measurement": "EC50", "setting": "[30]", "value": "> 92.5 µM (inactive)"}]}]}
